Consider one substance from patent US6989364B1, “Methods for treating cardiac hypertrophy by administering IFN-γ” (Genentech, Inc., priority 1998, dated 2006).

This assay relates to adult rat cardiac myocytes. Nature of the assay: Inhibition of PGF2α-induced spreading response of adult myocytes. Type of assay: cell-based. The protocol:
Myocytes were pre-incubated with saline vehicle or IFN-γ (500 U/ml) on day of isolation. A second addition of vehicle or IFN-γ was performed 24h after isolation, along with the addition of either vehicle or PGF2α (10^−7 M). After an additional 72 hr incubation, cells were fixed in glutaraldehyde, stained with eosin Y and viewed by fluorescence microscopy. A, B, C Cardiac myocytes after 4 days in culture: control, PGF2α, and PGF2α+IFN-γ, respectively. D, E, F Histographs showing maximum breadth of rod shaped cardiac myocytes versus percent frequency of breadth occurrence. The maximum breadth of rod-shaped cells was determined by fluorescence microscopy and imaging software. At least 200 rod shaped cells from a single experiment were examined per group.
Myocytes were pre-incubated with saline vehicle or IFN-γ on day of isolation. A second amount of IFN-γ was added 24 hr after isolation, along with the addition of either vehicle or PGF2α (10^−7 M). After an additional 72 hr incubation, cells were fixed in glutaraldehyde, stained with eosin Y and viewed under fluorescence. Quantitation of myocyte morphology: A control, B PGF2α, C PGF2α+IFN-γ (25 U/ml), D PGF2α+IFN-γ (100 U/ml), E PGF2α+IFN-γ (500 U/ml). Histographs showing maximum breadth of rod shaped cardiac myocytes versus percent frequency of breadth occurrence. The maximum breadth of rod-shaped cells was determined by fluorescence microscopy and imaging software. At least 200 rod shaped cells from a single experiment were examined per group.
In this assay, ventricular myocytes are isolated from a single (male Sprague-Dawley) rat, essentially following a modification of the procedure described in detail by Piper et al., “Adult ventricular rat heart muscle cells.” In: Cell Culture Techniques in Heart and Vessel Research, H. M. Piper, ed., Berlin: Spinger-Verlag, 1990, pp. 36–60. This procedure permits the isolation of adult ventricular myocytes and the long-term culture of these cells in the rod-shaped phenotype. […] Piper et al., supra; Lai et al., Am J. Physiol. 1996; 271 (Heart Circ. Phvsiol. 40):H2197–H2208. The inhibition of myocyte spreading induced by PGF2α, or PGF2α analogs, (e.g. fluprostenol) and phenylephrine by various potential inhibitors of cardiac hypertrophy is then tested. A detailed protocol is described in the examples that follow.
Adult myocyte cultures The procedure used for the isolation of ventricular myocytes from adult rats was a modification of a procedure described by Piper et al., supra, and is detailed in Lai et al., supra. For each myocyte preparation, one male Sprague-Dawley rat weighing about 250 g was anesthetized with pentobarbital sodium, and the heart was removed. Extraneous tissue was trimmed from the heart, and it was mounted onto a Langendorff system that was temperature controlled at 37° C. The heart was perfused with about 40 ml of Krebs buffer (110 mM NaCl, 2.6 mM KCl, 1.2 mM KH2PO4, 1.2 mM MgSO4.7H2O, 25 mM NaHCO3 and 11 mM glucose). A solution containing 30 mg of collagenase and 12.5 μl of 100 mM CaCl2 in 50 ml of Krebs buffer was then recirculated through the heart for 30 minutes. The heart was removed from the Langendorff apparatus, and the atria and connective tissues were removed. The ventricles were cut into 2 mm cubes with dissecting scissors, and further digested in a fresh collagenase solution (30 mg collagenase and 400 mg BSA dissolved in Krebs buffer with 12.5 μl of 100 mM CaCl2) for five minutes at 37° C. During the digestion, the tissue suspension was gently band shaken one time per minute. After the digestion, the supernatant was removed and saved, and the remaining tissue was further digested in fresh collagenase solution for an additional five minutes.

As for “IFN-γ: recombinant mouse IFN-γ (Genentech, Inc., South San Francisco, Calif., or Genzyme, Cambridge, Mass.)”, the “Dose dependence of the inhibitory effect on PGF2α-induced myocyte spreading” value (IFN-γ 25, 100, 500 U/ml, PGF2α 10^−7 M) is “dose dependent”. In addition, under “IFN-γ 500 U/ml, PGF2α 10^−7 M, 72 hr, P<0.001 vs PGF2α”, the “Inhibition of PGF2α-induced myocyte spreading (maximum cell breadth of rod shaped cells)” value is “significantly inhibited their response to PGF2α”. In addition, for the setting “IFN-γ alone, 500 U/ml, no PGF2α”, the “Effect of the substance alone on morphology of the cells” value is “had no observable effect on the morphology of the cells”.
